{
  "source": "paper PMC5562305",
  "about": "“Impact of novel palmitoylated prolactin-releasing peptide analogs on metabolic changes in mice with diet-induced obesity” (PLoS ONE, 2017)",
  "tested_on": "urinary metabolites",
  "experiment": "NMR-based metabolomics of urine of DIO mice",
  "assay_type": "in vivo, C57BL/6 mice",
  "design": "key to DMA, Mean / DMG, Mean / MA, Mean / TMA, Mean / acetate, Mean / allantoin, Mean / carnitine, Mean / choline, Mean / cis-aconitate, Mean / creatine+creatinine, Mean / creatine, Mean / creatinine, Mean / ethanolamine, Mean / formate, Mean / galactose, Mean / glucose, Mean / glycine, Mean / lactate, Mean / succinate, Mean / vinylacetylglycine, Mean: TSA-normalized intensity of the metabolite's representative NMR signal",
  "procedure": "Urine samples for NMR-based metabolomics were collected prior to the start of the interventions and at the end of the experiment. For overnight urine collection (from 5 pm to 8 am), the mice were housed in individual metabolic cages (Tecniplast, Buguggiate, Italy) without access to food. Samples were collected with the addition of NaN3 and stored at -80°C until NMR analysis.\nThe urine samples were thawed at room temperature and centrifuged at 13 684 x g for 5 min prior to the NMR experiments. A 200-μl aliquot of supernatant was diluted with 340 μl of H2O mixed with 60 μl of phosphate buffer (1.5 M KH2PO4 in D2O containing 2 mM NaN3 and 0.1% trimethylsilyl propionic acid (TSP), pH 7.4) and transferred to a 5-mm NMR tube. The NMR data were acquired with a 600 MHz Bruker Avance III spectrometer (Bruker BioSpin, Rheinstetten, Germany) equipped with a 5-mm TCI cryogenic probe head. All of the experiments were performed at 300 K. Automatic tuning, matching, shimming and adjusting of the 90° pulse length were performed for each sample.\nAs mouse urine naturally contains urinary proteins, the NMR spectra were acquired using a Carr-Purcell-Meiboom-Gill (CPMG) pulse sequence with water presaturation (Bruker pulse sequence cpmgpr1d) to eliminate the strong protein background. […] For better metabolite identification, a short J-resolved experiment with presaturation (NS = 2, SW = 16 ppm, TD = 8k, number of increments = 40, SW = 78.125 Hz in the indirect dimension, and relaxation delay = 2 s) was executed for all samples. Additional two-dimensional ^1H-^1H correlation spectroscopy (COSY) and ^1H-^13C heteronuclear multiple-quantum correlation (HMQC) experiments (Bruker pulse sequences cosygpprqf and hmqcphpr) were performed for selected samples.\nThe acquired data were processed using Topspin 3.2 software (Bruker BioSpin, Rheinstetten, Germany). Line broadening of 0.3 Hz was applied on free induction decays (FIDs) prior to Fourier transformation. The spectra were automatically phased, baseline corrected and referenced to the signal of TSP (0.00 ppm).\nThe assignment of individual metabolites was achieved by comparing the proton spectra with the spectra of pure metabolites using Chenomx NMR Suite 7.6 (Chenomx Inc., Edmonton, AB, Canada), the HMDB database and previously published metabolomic data. The identification of metabolites was supported through J-resolved and COSY experiments and, if possible, confirmed using carbon chemical shifts extracted from the HMQC spectra.\nFor quantitation of individual metabolites, the CPMG spectra were uniformly binned in the range of 0.10–10.00 ppm to 0.01-ppm intervals using AMIX software (Bruker BioSpin, Rheinstetten, Germany). This procedure reduced the dimensionality of the data, eliminated chemical shift variations and thus simplified the reproducible automatic quantification. Regions corresponding to water (4.60–4.90 ppm) and urea (5.60–6.00 ppm) were removed prior to analysis. As the dilutions of the original urine samples differed (due to the differences in water intake during urine collection), all of the spectra were normalized to the total spectral area (TSA). For each identified metabolite, one representative signal was chosen and then quantified as the sum of appropriate adjacent 0.01-ppm bins to cover the whole signal width. The metabolite concentration was expressed as the TSA-normalized intensity of the respective signal. For selection of an appropriate statistical method (parametric or non-parametric) the Lilliefors test of normality was performed. […] Metabolite alterations with a P < 0.05 were considered statistically significant. Statistical analysis was performed using Matlab software (“MATLAB version 8.6 (R2015b). Natick, Massachusetts: The MathWorks Inc., 2015.,” n.d.). […]",
  "key": {"[1]": {"conditions": "urine NMR signal, DIO mice, group mean"}, "[2]": {"conditions": "urine of DIO mice, NMR metabolomics, difference of analog mean vs saline mean"}},
  "note": "Starred links: 1 amine or outer side, 2 acyl side, 3 side chain; linkers in the order of their positions; H or OH if unused. Residues, ends and D or L forms follow the SMILES beside them. Groups on a side chain read outwards from the residue. *: point of attachment. TTDA(Palmitoyl) = CCCCCCCCCCCCCCCC(=O)NCCCOCCOCCOCCCN*; Suc = O=C(CCC(=O)[*:2])[*:1]",
  "data": [
    {"compound": "CCCCCCCCCCCCCCCC(=O)NCCCOCCOCCOCCCNC(=O)CCC(=O)NCCCC[C@H](NC(=O)[C@@H](NC(=O)[C@H](CCC(=O)O)NC(=O)[C@H](CCSC)NC(=O)[C@H](CO)NC(=O)[C@H](Cc1c[nH]cn1)NC(=O)[C@H](CCCNC(=N)N)NC(=O)[C@H](Cc1c[nH]cn1)NC(=O)[C@@H](NC(=O)[C@H](CCCNC(=N)N)NC(=O)[C@@H](N)CO)[C@@H](C)O)[C@@H](C)CC)C(=O)N[C@H](C(=O)N1CCC[C@H]1C(=O)N[C@@H](CC(=O)O)C(=O)N[C@H](C(=O)N[C@@H](CC(N)=O)C(=O)N1CCC[C@H]1C(=O)N[C@@H](C)C(=O)N[C@@H](Cc1c[nH]c2ccccc12)C(=O)N[C@@H](Cc1ccc(O)cc1)C(=O)N[C@@H](C)C(=O)N[C@@H](CO)C(=O)N[C@@H](CCCNC(=N)N)C(=O)NCC(=O)N[C@H](C(=O)N[C@@H](CCCNC(=N)N)C(=O)N1CCC[C@H]1C(=O)N[C@H](C(=O)NCC(=O)N[C@@H](CCCNC(=N)N)C(=O)N[C@@H](Cc1ccccc1)C(N)=O)C(C)C)[C@@H](C)CC)[C@@H](C)CC)[C@@H](C)O", "note": "[analog 2] (H-SRTHRHSMEIK([Suc-TTDA(Palmitoyl)])TPDINPAWYASRGIRPVGRF-NH2; N-terminus assumed)", "values": [
      {"measurement": "2-OG (2.45 ppm), Mean", "setting": "[1]", "value": 11.956},
      {"measurement": "2-OG (3.01 ppm), Mean", "setting": "[1]", "value": 10.103},
      {"measurement": "2-PY (8.33 ppm), Mean", "setting": "[1]", "value": 0.992},
      {"measurement": "3-indoxylsulfate (7.51 ppm), Mean", "setting": "[1]", "value": 1.459},
      {"measurement": "3-indoxylsulfate (7.71 ppm), Mean", "setting": "[1]", "value": 0.842},
      {"measurement": "4-PY (7.97 ppm), Mean", "setting": "[1]", "value": 1.710},
      {"measurement": "4-PY (8.55 ppm), Mean", "setting": "[1]", "value": 0.484},
      {"measurement": "DMA, Mean", "setting": "[1]", "value": 5.145},
      {"measurement": "DMG, Mean", "setting": "[1]", "value": 1.928},
      {"measurement": "MA, Mean", "setting": "[1]", "value": 2.920},
      {"measurement": "MNA (8.90 ppm), Mean", "setting": "[1]", "value": 0.407},
      {"measurement": "MNA (8.97 ppm), Mean", "setting": "[1]", "value": 0.391},
      {"measurement": "MNA (9.265 ppm), Mean", "setting": "[1]", "value": 0.413},
      {"measurement": "MNA-Nox (7.75 ppm), Mean", "setting": "[1]", "value": 0.969},
      {"measurement": "MNA-Nox (8.13 ppm), Mean", "setting": "[1]", "value": 0.725},
      {"measurement": "MNA-Nox (8.49 ppm), Mean", "setting": "[1]", "value": 0.458},
      {"measurement": "MNA-Nox (8.75 ppm), Mean", "setting": "[1]", "value": 0.434},
      {"measurement": "N-carbamoylalanine (2.38 ppm), Mean", "setting": "[1]", "value": 10.919},
      {"measurement": "N-carbamoylalanine (3.31 ppm), Mean", "setting": "[1]", "value": 9.060},
      {"measurement": "N-isovalerylglycine + oxovalerate (0.92 ppm), Mean", "setting": "[1]", "value": 15.384},
      {"measurement": "TMA, Mean", "setting": "[1]", "value": 10.220},
      {"measurement": "acetate, Mean", "setting": "[1]", "value": 4.384},
      {"measurement": "allantoin, Mean", "setting": "[1]", "value": 21.272},
      {"measurement": "carnitine, Mean", "setting": "[1]", "value": 6.113},
      {"measurement": "choline, Mean", "setting": "[1]", "value": 2.053},
      {"measurement": "cis-aconitate, Mean", "setting": "[1]", "value": 9.014},
      {"measurement": "citrate (2.55 ppm), Mean", "setting": "[1]", "value": 31.737},
      {"measurement": "citrate (2.69 ppm), Mean", "setting": "[1]", "value": 28.801},
      {"measurement": "creatine+creatinine, Mean", "setting": "[1]", "value": 23.782},
      {"measurement": "creatine, Mean", "setting": "[1]", "value": 6.742},
      {"measurement": "creatinine, Mean", "setting": "[1]", "value": 11.494},
      {"measurement": "ethanolamine, Mean", "setting": "[1]", "value": 7.749},
      {"measurement": "formate, Mean", "setting": "[1]", "value": 0.205},
      {"measurement": "fumarate, Mean", "setting": "[1]", "value": 0.167},
      {"measurement": "galactose, Mean", "setting": "[1]", "value": 0.806},
      {"measurement": "glucose, Mean", "setting": "[1]", "value": 3.486},
      {"measurement": "glycine, Mean", "setting": "[1]", "value": 6.185},
      {"measurement": "hexanoylglycine + acids (0.88 ppm), Mean", "setting": "[1]", "value": 15.251},
      {"measurement": "hippurate (7.55 ppm), Mean", "setting": "[1]", "value": 4.857},
      {"measurement": "hippurate (7.64 ppm), Mean", "setting": "[1]", "value": 2.465},
      {"measurement": "hippurate (7.84 ppm), Mean", "setting": "[1]", "value": 5.092},
      {"measurement": "lactate, Mean", "setting": "[1]", "value": 7.122},
      {"measurement": "multiplet acids (1.6 ppm), Mean", "setting": "[1]", "value": 12.357},
      {"measurement": "putrescin, Mean", "setting": "[1]", "value": 8.544},
      {"measurement": "succinate, Mean", "setting": "[1]", "value": 12.532},
      {"measurement": "taurine (3.27 ppm), Mean", "setting": "[1]", "value": 20.714},
      {"measurement": "taurine (3.43 ppm), Mean", "setting": "[1]", "value": 17.197},
      {"measurement": "trigonelline (8.84 ppm), Mean", "setting": "[1]", "value": 0.310},
      {"measurement": "trigonelline (9.13 ppm), Mean", "setting": "[1]", "value": 0.125},
      {"measurement": "vinylacetylglycine, Mean", "setting": "[1]", "value": 3.494},
      {"measurement": "2-OG (2.45 ppm), Saline/analog %", "setting": "[2]", "value": 0.017, "unit": "%"},
      {"measurement": "2-OG (3.01 ppm), Saline/analog %", "setting": "[2]", "value": -0.013, "unit": "%"},
      {"measurement": "2-PY (8.33 ppm), Saline/analog %", "setting": "[2]", "value": -0.147, "unit": "%"},
      {"measurement": "3-indoxylsulfate (7.51 ppm), Saline/analog %", "setting": "[2]", "value": 0.120, "unit": "%"},
      {"measurement": "3-indoxylsulfate (7.71 ppm), Saline/analog %", "setting": "[2]", "value": 0.094, "unit": "%"},
      {"measurement": "4-PY (7.97 ppm), Saline/analog %", "setting": "[2]", "value": -0.055, "unit": "%"},
      {"measurement": "4-PY (8.55 ppm), Saline/analog %", "setting": "[2]", "value": -0.165, "unit": "%"},
      {"measurement": "DMA, Saline/analog %", "setting": "[2]", "value": 0.025, "unit": "%"},
      {"measurement": "N-carbamoylalanine (2.38 ppm), Saline/analog %", "setting": "[2]", "value": 0.014, "unit": "%"},
      {"measurement": "N-carbamoylalanine (3.31 ppm), Saline/analog %", "setting": "[2]", "value": -0.045, "unit": "%"},
      {"measurement": "N-isovalerylglycine + oxovalerate (0.92 ppm), Saline/analog %", "setting": "[2]", "value": 0.062, "unit": "%"},
      {"measurement": "TMA, Saline/analog %", "setting": "[2]", "value": -0.159, "unit": "%"},
      {"measurement": "acetate, Saline/analog %", "setting": "[2]", "value": 0.167, "unit": "%"},
      {"measurement": "allantoin, Saline/analog %", "setting": "[2]", "value": 0.054, "unit": "%"},
      {"measurement": "carnitine, Saline/analog %", "setting": "[2]", "value": 0.027, "unit": "%"},
      {"measurement": "choline, Saline/analog %", "setting": "[2]", "value": 0.042, "unit": "%"},
      {"measurement": "cis-aconitate, Saline/analog %", "setting": "[2]", "value": 0.015, "unit": "%"},
      {"measurement": "citrate (2.55 ppm), Saline/analog %", "setting": "[2]", "value": -0.026, "unit": "%"},
      {"measurement": "citrate (2.69 ppm), Saline/analog %", "setting": "[2]", "value": -0.034, "unit": "%"},
      {"measurement": "creatine+creatinine, Saline/analog %", "setting": "[2]", "value": 0.043, "unit": "%"}
    ]}
  ]
}
